Laboratory results published in ChEMBL document CHEMBL3044678, “The synthesis and herbicidal activity of 1-alkyl-3-(alpha-hydroxy-substituted benzylidene)pyrrolidine-2,4-diones” (2005).
Activity calls are given as the source filed them. The rule behind the calls is not given here.

Columns and labels:
[1] = system: Echinochloa crus-galli; assay: Herbicidal activity against Echinochloa crus-galli (barnyard grass) assessed as growth inhibition at 10 ug/mL; type: functional; settings: (L.) Beauv, read-out: GI
[2] = system: Brassica napus; assay: Herbicidal activity against Brassica napus (oilseed rape) assessed as growth inhibition at 100 ug/mL; type: functional; settings: read-out: GI
[3] = system: Echinochloa crus-galli; assay: Herbicidal activity against Echinochloa crus-galli (barnyard grass) assessed as plant bleaching effect at 100 ug/mL; type: functional, organism-based; settings: (L.) Beauv
[4] = system: Brassica napus; assay: Herbicidal activity against Brassica napus (oilseed rape) assessed as growth inhibition at 10 ug/mL; type: functional; settings: read-out: GI
[5] = system: Echinochloa crus-galli; assay: Herbicidal activity against Echinochloa crus-galli (barnyard grass) assessed as growth inhibition at 100 ug/mL; type: functional; settings: (L.) Beauv, read-out: GI

| SMILES | inhibition of growth at 10 µg/mL [1] [%] | inhibition of growth at 100 µg/mL [2] [%] | Activity [3] | inhibition of growth at 10 µg/mL [4] [%] | inhibition of growth at 100 µg/mL [5] [%] |
| --- | --- | --- | --- | --- | --- |
| CC(C)(C)N1CC(=O)/C(=C(/O)c2ccc(Cl)cc2)C1=O | 0.4 | 98 | inactive | 13.8 | 20.8 |
| CC(C)N1CC(=O)/C(=C(/O)c2cccc([N+](=O)[O-])c2)C1=O | 0 | 70.3 | inactive | 10.2 | 42 |
| COc1ccc(/C(O)=C2\C(=O)CN(C(C)C)C2=O)cc1 | 79.6 | 71 | Active | 11.9 | 80 |
| CC(C)N1CC(=O)/C(=C(/O)c2ccc([N+](=O)[O-])cc2)C1=O | 0 | 34.2 | inactive | 4.5 | 1.6 |
| Cc1ccccc1/C(O)=C1\C(=O)CN(C(C)C)C1=O | 76.9 | 62.4 | Active | 15.2 | 77.3 |
| CC(C)N1CC(=O)/C(=C(/O)c2ccccc2Cl)C1=O | 51 | 66.8 | Active | 38.9 | 77.9 |
| Cc1ccccc1/C(O)=C1\C(=O)CN(C)C1=O | 31.2 | 44.4 | Active | 0 | 78.3 |
| CC(C)(C)N1CC(=O)/C(=C(/O)c2ccc([N+](=O)[O-])cc2)C1=O | 0 | 48.1 | inactive | 1.8 | 9.8 |
| COc1ccc(/C(O)=C2\C(=O)CN(C)C2=O)cc1 | 16.2 | 50.7 | Active | 7.9 | 78.8 |
| CS(=O)(=O)c1ccc(C(=O)C2C(=O)CCCC2=O)c(Cl)c1 [SULCOTRIONE] | 29.4 | 38.1 | Active | 3.5 | 45.1 |
| Cc1cccc(/C(O)=C2\C(=O)CN(C(C)(C)C)C2=O)c1 | 4.9 | 85 | inactive | 24.9 | 48.5 |
| Cc1ccccc1/C(O)=C1\C(=O)CN(C(C)(C)C)C1=O | 63.6 | 74.9 | Active | 21.1 | 74.4 |
| CC(C)N1CC(=O)/C(=C(/O)c2ccc(Cl)cc2)C1=O | 25.1 | 77.2 | Active | 16 | 68 |
| Cc1ccc(/C(O)=C2\C(=O)CN(C(C)(C)C)C2=O)cc1 | 36.3 | 88.1 | inactive | 13.5 | 48 |
| Cc1cccc(/C(O)=C2\C(=O)CN(C(C)C)C2=O)c1 | 49.2 | 82.1 | Active | 3.3 | 75.5 |
| CN1CC(=O)/C(=C(/O)c2ccc(Cl)cc2)C1=O | 9.4 | 90.5 | inactive | 15.8 | 50.1 |
| CN1CC(=O)/C(=C(/O)c2cccc([N+](=O)[O-])c2)C1=O | 5.2 | 22.4 | inactive | 0 | 42.8 |
| COc1ccccc1/C(O)=C1\C(=O)CN(C(C)C)C1=O | 77.3 | 58.7 | Active | 3 | 78.1 |
| Cc1cccc(/C(O)=C2\C(=O)CN(C)C2=O)c1 | 25.3 | 64 | Active | 14 | 68.3 |
| CN1CC(=O)/C(=C(/O)c2ccc([N+](=O)[O-])cc2)C1=O | 9 | 40.9 | inactive | 5.1 | 51.9 |
| CC(C)(C)N1CC(=O)/C(=C(/O)c2cccc([N+](=O)[O-])c2)C1=O | 0 | 80.1 | inactive | 22.1 | 0.5 |
| Cc1ccc(/C(O)=C2\C(=O)CN(C(C)C)C2=O)cc1 | 76.8 | 86.4 | Active | 8.1 | 78.4 |
| COc1ccc(/C(O)=C2\C(=O)CN(C(C)(C)C)C2=O)cc1 | 78.7 | 77.7 | Active | 5.4 | 80.3 |
| COc1ccccc1/C(O)=C1\C(=O)CN(C(C)(C)C)C1=O | 74.9 | 69.5 | Active | 41.2 | 82.9 |
